Data reported in ChEMBL document CHEMBL1641542, “Structure-activity relationships of 2,4-diphenyl-1H-imidazole analogs as CB2 receptor agonists for the treatment of chronic pain” (Bioorg Med Chem Lett, 2011).

Legend:
[1] = target: T1, Cannabinoid receptor 2 (Homo sapiens, UniProt P34972); experiment: Agonist activity at human cloned CB2 receptor expressed in CHO cells assessed as inhibition of forskolin-induced cAMP accumulation; type: functional, cell-based
[2] = target: T1, Cannabinoid receptor 2; experiment: Agonist activity at human cloned CB2 receptor expressed in CHO cells assessed as inhibition of forskolin-induced cAMP accumulation relative to control; type: functional, cell-based
[3] = AUC (0 to 6 hrs) in rat at 10 mg/kg, po; type: ADME, organism-based; set-up: time < 6 hr, dose 10 mg/kg, route oral; conditions: plasma
[4] = target: T2, Cannabinoid receptor 1 (Homo sapiens, UniProt P21554); experiment: Agonist activity at human cloned CB1 receptor expressed in CHO cells assessed as inhibition of forskolin-induced cAMP accumulation; type: functional, cell-based
[5] = target: T2, Cannabinoid receptor 1; experiment: Displacement of [3H]-CP55940 from human cloned CB1 receptor expressed in CHO cells; type: cell-based
[6] = target: T1, Cannabinoid receptor 2; experiment: Displacement of [3H]-CP55940 from human cloned CB2 receptor expressed in CHO cells; type: cell-based
[7] = target: T2, Cannabinoid receptor 1; experiment: Agonist activity at human cloned CB1 receptor expressed in CHO cells assessed as inhibition of forskolin-induced cAMP accumulation relative to control; type: functional, cell-based

T2 sequence (P21554 whole entry): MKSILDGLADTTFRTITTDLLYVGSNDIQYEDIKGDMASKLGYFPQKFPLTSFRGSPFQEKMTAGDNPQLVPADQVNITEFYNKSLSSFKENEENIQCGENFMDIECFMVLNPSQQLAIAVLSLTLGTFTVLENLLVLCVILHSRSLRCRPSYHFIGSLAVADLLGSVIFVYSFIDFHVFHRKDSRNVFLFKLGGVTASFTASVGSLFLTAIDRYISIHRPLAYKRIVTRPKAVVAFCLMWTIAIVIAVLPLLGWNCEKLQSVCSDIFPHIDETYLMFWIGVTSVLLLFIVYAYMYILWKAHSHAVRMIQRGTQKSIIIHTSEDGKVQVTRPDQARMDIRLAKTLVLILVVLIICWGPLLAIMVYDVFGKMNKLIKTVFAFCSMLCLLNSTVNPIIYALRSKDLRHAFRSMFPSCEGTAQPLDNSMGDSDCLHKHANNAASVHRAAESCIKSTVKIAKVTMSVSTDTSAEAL
T1 sequence (P34972 whole entry): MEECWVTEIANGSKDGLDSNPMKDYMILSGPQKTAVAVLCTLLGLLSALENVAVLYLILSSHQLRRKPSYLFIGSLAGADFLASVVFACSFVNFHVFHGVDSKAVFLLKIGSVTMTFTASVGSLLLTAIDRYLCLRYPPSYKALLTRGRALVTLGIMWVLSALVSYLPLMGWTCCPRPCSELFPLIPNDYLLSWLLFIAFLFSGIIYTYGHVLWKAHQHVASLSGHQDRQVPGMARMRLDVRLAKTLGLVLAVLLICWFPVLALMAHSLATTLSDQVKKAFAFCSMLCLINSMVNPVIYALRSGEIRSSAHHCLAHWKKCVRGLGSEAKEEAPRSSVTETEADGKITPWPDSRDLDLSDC

SMILES: FC1(F)CCCN(Cc2cccc(-c3nc(-c4cccc(C(F)(F)F)c4)c[nH]3)c2)C1
- EC50 [1]: 25 nM
- Emax [2]: 98%
- AUC(0-t) at 6 h [3]: 0.851 µM·h

SMILES: Clc1cccc(-c2c[nH]c(-c3cccc(CN4CCCCC4)c3)n2)c1
- EC50 [4]: 1050 nM
- EC50 [1]: 10 nM
- Emax [2]: 114%

SMILES: COc1ccc(F)c(-c2c[nH]c(-c3cccc(CN4CCC(F)(F)CC4)c3)n2)c1
- EC50 [4]: 25 nM
- EC50 [1]: 5 nM
- Emax [2]: 107%

SMILES: FC1CCN(Cc2cccc(-c3nc(-c4cccc(Cl)c4)c[nH]3)c2)CC1
- EC50 [4]: 130 nM
- EC50 [1]: 8 nM
- Emax [2]: 107%

SMILES: FC1CCN(Cc2ccccc2-c2nc(-c3cccc(C(F)(F)F)c3)c[nH]2)CC1
- EC50 [4]: > 10000 nM
- EC50 [1]: 130 nM
- Emax [2]: 108%

SMILES: CC1CN(Cc2cccc(-c3nc(-c4cccc(Cl)c4)c[nH]3)c2)CCO1 (centres undefined)
- EC50 [4]: 3250 nM
- EC50 [1]: 14 nM
- Emax [2]: 102%

SMILES: FC1(F)CCN(Cc2cccc(-c3nc(-c4cccc(C(F)(F)F)c4)c[nH]3)c2)CC1
- EC50 [4]: 2550 nM
- EC50 [1]: 5 nM
- Emax [2]: 100%
- AUC(0-t) at 6 h [3]: 1.11 µM·h

SMILES: FC(F)(F)c1cccc(-c2c[nH]c(-c3cccc(CN4CCCCC4)c3)n2)c1
- EC50 [4]: > 10000 nM
- EC50 [1]: 14 nM
- Emax [2]: 104%
- AUC(0-t) at 6 h [3]: 0.537 µM·h

SMILES: COc1ccc(-c2c[nH]c(-c3cccc(CN4CCC(F)(F)CC4)c3)n2)c(F)c1
- EC50 [4]: 39 nM
- EC50 [1]: 3 nM
- Emax [2]: 107%

SMILES: C[C@H]1COCCN1Cc1cccc(-c2nc(-c3cccc(C(F)(F)F)c3)c[nH]2)c1
- EC50 [1]: 169 nM
- Emax [2]: 78%

SMILES: FC(F)(F)c1cccc(-c2cn(-c3ccccc3)c(-c3cccc(CN4CCOCC4)c3)n2)c1
- EC50 [1]: > 1000 nM

SMILES: FC1CCN(Cc2cccc(-c3nc(-c4ccc(Cl)cc4Cl)c[nH]3)c2)CC1
- EC50 [4]: 2450 nM
- EC50 [1]: 10 nM
- Emax [2]: 107%

SMILES: COc1ccc(F)c(-c2c[nH]c(-c3cccc(CN4CCCCC4)c3)n2)c1
- EC50 [4]: 320 nM
- EC50 [1]: 4 nM
- Emax [2]: 108%

SMILES: FC(F)(F)c1cccc(-c2c[nH]c(-c3cccc(CN4CCSCC4)c3)n2)c1
- EC50 [4]: > 1000 nM
- EC50 [1]: 6 nM
- Emax [2]: 100%
- AUC(0-t) at 6 h [3]: 0.042 µM·h

SMILES: O=S(=O)(c1ccccc1)n1cc(-c2cccc(C(F)(F)F)c2)nc1-c1cccc(CN2CCOCC2)c1
- EC50 [1]: > 1000 nM

SMILES: Clc1ccc(-c2c[nH]c(-c3cccc(CN4CCCCC4)c3)n2)c(Cl)c1
- EC50 [4]: 1800 nM
- EC50 [1]: 24 nM
- Emax [2]: 104%

SMILES: COc1ccc(F)c(-c2c[nH]c(-c3cccc(CN4CCOCC4)c3)n2)c1
- EC50 [4]: 140 nM
- EC50 [1]: 4 nM
- Emax [2]: 109%

SMILES: CC(=O)n1cc(-c2cccc(C(F)(F)F)c2)nc1-c1cccc(CN2CCOCC2)c1
- EC50 [4]: > 1000 nM
- EC50 [1]: 9 nM
- Emax [2]: 102%

SMILES: O[C@H]1CCCN(Cc2cccc(-c3nc(-c4cccc(C(F)(F)F)c4)c[nH]3)c2)C1
- EC50 [4]: > 10000 nM
- EC50 [1]: 113 nM
- Emax [2]: 92%

SMILES: CC1CCCN(Cc2cccc(-c3nc(-c4cccc(C(F)(F)F)c4)c[nH]3)c2)C1 (centres undefined)
- EC50 [1]: 70 nM
- Emax [2]: 87%
- AUC(0-t) at 6 h [3]: 1.41 µM·h

SMILES: FC1CCN(Cc2cccc(-c3nc(-c4cccc(Cl)c4Cl)c[nH]3)c2)CC1
- EC50 [4]: 1290 nM
- EC50 [1]: 5 nM
- Emax [2]: 119%

SMILES: Brc1cccc(-c2c[nH]c(-c3cccc(CN4CCOCC4)c3)n2)c1
- EC50 [4]: 665 nM
- EC50 [1]: 5 nM
- Emax [2]: 112%
- AUC(0-t) at 6 h [3]: 0.158 µM·h

SMILES: Clc1cccc(-c2c[nH]c(-c3cccc(CN4CCCCC4)c3)n2)c1Cl
- EC50 [4]: 12600 nM
- EC50 [1]: 8 nM
- Emax [2]: 115%

SMILES: FC(F)(F)c1cccc(-c2cn(Cc3ccccc3)c(-c3cccc(CN4CCOCC4)c3)n2)c1
- EC50 [4]: > 1000 nM
- EC50 [1]: > 1000 nM

SMILES: CC1CCN(Cc2cccc(-c3nc(-c4cccc(C(F)(F)F)c4)c[nH]3)c2)CC1
- EC50 [4]: > 10000 nM
- EC50 [1]: 21 nM
- Emax [2]: 97%
- AUC(0-t) at 6 h [3]: 0.881 µM·h

SMILES: O=C(c1ccccc1)n1cc(-c2cccc(C(F)(F)F)c2)nc1-c1cccc(CN2CCOCC2)c1
- EC50 [1]: 11 nM
- Emax [2]: 101%

SMILES: FC1CCN(Cc2cccc(-c3nc(-c4cccc(C(F)(F)F)c4)c[nH]3)c2)CC1
- EC50 [4]: 2290 nM
- EC50 [1]: 9 nM
- Emax [2]: 107%
- AUC(0-t) at 6 h [3]: 0.524 µM·h

SMILES: CC1CN(Cc2ccccc2-c2nc(-c3cccc(C(F)(F)F)c3)c[nH]2)CCO1 (centres undefined)
- EC50 [4]: > 10000 nM
- EC50 [1]: 510 nM
- Emax [2]: 102%

SMILES: CC1CN(Cc2cccc(-c3nc(-c4cccc(C(F)(F)F)c4)c[nH]3)c2)CCO1 (centres undefined)
- EC50 [4]: > 10000 nM
- EC50 [1]: 25 nM
- Emax [2]: 97%
- AUC(0-t) at 6 h [3]: 1.99 µM·h

SMILES: FC1CCCN(Cc2cccc(-c3nc(-c4cccc(C(F)(F)F)c4)c[nH]3)c2)C1 (centres undefined)
- EC50 [1]: 16 nM
- Emax [2]: 98%
- AUC(0-t) at 6 h [3]: 0.682 µM·h

SMILES: FC(F)(F)c1cccc(-c2c[nH]c(-c3cccc(CN4CCOCC4)c3)n2)c1
- Ki [5]: 1000 nM
- Ki [6]: 42 nM
- EC50 [4]: > 1000 nM
- Emax [7]: 67%
- EC50 [1]: 8 nM
- Emax [2]: 80%
- AUC(0-t) at 6 h [3]: 0.866 µM·h

SMILES: OCC1CCCN(Cc2cccc(-c3nc(-c4cccc(C(F)(F)F)c4)c[nH]3)c2)C1 (centres undefined)
- EC50 [4]: > 1000 nM
- EC50 [1]: 61 nM
- Emax [2]: 91%

SMILES: CC1CCN(Cc2cccc(-c3nc(-c4cccc(Cl)c4Cl)c[nH]3)c2)CC1
- EC50 [4]: > 10000 nM
- EC50 [1]: 25 nM
- Emax [2]: 107%

SMILES: CCOc1ccc(F)c(-c2c[nH]c(-c3cccc(CN4CCCCC4)c3)n2)c1
- EC50 [4]: 8500 nM
- EC50 [1]: 87 nM
- Emax [2]: 102%

SMILES: COc1ccc(F)c(-c2c[nH]c(-c3cccc(CN4CCC(F)CC4)c3)n2)c1
- EC50 [4]: 87 nM
- EC50 [1]: 5 nM
- Emax [2]: 106%

SMILES: FC(F)(F)c1cccc(-c2cn(CC3CC3)c(-c3cccc(CN4CCOCC4)c3)n2)c1
- EC50 [4]: > 1000 nM
- EC50 [1]: 412 nM
- Emax [2]: 68%

SMILES: CC(C)n1cc(-c2cccc(C(F)(F)F)c2)nc1-c1cccc(CN2CCOCC2)c1
- EC50 [4]: > 1000 nM
- EC50 [1]: 218 nM
